Assay in all cases: inhibition of tumour cell growth, NCI panel, 48 h
Assay [1] has as its system 786-0 renal.
In assay [2] the test system is COLO 205 colon.
Assay [3] relates to HOP-62 NSCLC.
Assay [4] has as its system NCI-H226 lung.
Assay [5] has as its system OVCAR-3 ovarian.
The subject of assay [6] is SNB-75 CNS.
The subject of assay [7] is SW-620 colon.
Assay [8] relates to NCI-H23 lung.
Assay [9] concerns SK-MEL-2 melanoma.
The subject of assay [10] is DU-145 prostate.

Molecules are shown by their SMILES.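 Values below derive from 48-hour exposures of cells grown in 96-well plates, with endpoints linearly interpolated between the two concentrations bracketing the appropriate inhibition level. Here, GI50 denotes the concentration required for 50% inhibition of growth. TGI denotes the concentration required for complete inhibition of growth.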 A value given as a limit tells only on which side of the number the result lay.

On to `CCN(CC)CCOc1ccc(CCc2cc(OC)c(OC)c(OC)c2)cc1`, for which the TGI in assay [1] is greater than 100 µM; in [2] it was 31 µM; in [3] it was 81.4 µM; in assay [4], greater than 100 µM; in assay [5] it was greater than 100 µM; in assay [6] it was 94.5 µM. The TGI in [7] was determined as 46.8 µM.
Consider `C[C@]12CCC(=O)C=C1CC[C@@H]1C2CC[C@]2(C)Nc3c(cnn3-c3ccccc3)CC12` (stereo partly specified), for which the TGI in [1] was greater than 100 µM; in [3], greater than 100 µM; in assay [4], greater than 100 µM; in assay [8] it was greater than 100 µM; in assay [5], greater than 10 µM; in assay [9] it was greater than 100 µM. Moreover, the TGI in assay [6] and in [7] was greater than 100 µM each time.
For `CN1CCN(CCOc2ccc(-c3cnc4c(-c5ccc(C(F)(F)F)cc5)cnn4c3)cc2)CC1`, the GI50 in assay [1] is 1.67 µM; in [10], 1.59 µM; in assay [3] it was 1.63 µM; in assay [8] it was 1.62 µM; in [5], 1.55 µM; in [9] it was 1.82 µM. In addition, the GI50 in [6] was 1.5 µM; in assay [7], 1.76 µM. The TGI in [1] is 3.16 µM; in assay [10], 2.93 µM; in assay [3], 3.55 µM; in assay [8] it was 3.14 µM; in assay [5] it was 2.94 µM; in assay [9], 3.52 µM. The results for the TGI in assay [6] and in assay [7] were 2.88 µM and 3.27 µM, respectively.
In the case of `CC(C)CCCC(C)[C@H]1CCC2[C@@H]3CCC4Nc5nocc5C[C@]4(C)C3CC[C@@]21C` (stereo partly specified), the TGI in [1] is 25.9 µM; in assay [2], 20.4 µM; in [3], greater than 100 µM; in [4], 37.3 µM; in assay [8], 31.4 µM; in assay [5] it was 20.5 µM. Besides, the TGI in assay [9] worked out at 38.7 µM; in assay [6], 33.8 µM; in [7], 31.4 µM.
Regarding `O=C1C2C3C=C4c5ccccc5N(c5ccccc5)C4(C2C(=O)N1c1ccc(Cl)cc1)[C@H]1C(=O)N(c2ccc(Cl)cc2)C(=O)[C@@H]31` (stereo partly specified), the TGI in assay [1], in assay [2], in assay [3], in assay [4], in [8] and in assay [5] was greater than 100 µM throughout. Also, the TGI in assay [9], in [6] and in assay [7] was greater than 100 µM in each case.
On to `Cc1ccc(SSc2ccc(C)cc2C(=O)O)c(C(=O)O)c1`, for which the TGI in assay [1], in assay [2], in [3], in [4], in [8] and in assay [9] was greater than 100 µM each time. Besides, the TGI in assay [7] was greater than 100 µM.
Take `Cc1cc(NCCCCCCNc2cc(C)nc3cc(N(C)C)ccc23)c2ccc(N(C)C)cc2n1`: the TGI in [1], in assay [3], in assay [8], in assay [5], in assay [9] and in [6] was greater than 100 µM throughout. The molecule also registered a TGI in assay [7] greater than 100 µM.
Take `C1=CC=C2NCCCCCCCNC3=CC=CC=CC3=NCCCCCCCN=C2C=C1`: the TGI in [1] is greater than 100 µM; in assay [2], greater than 100 µM; in assay [4] it was greater than 100 µM; in assay [8], greater than 100 µM; in assay [9] it was greater than 100 µM; in assay [6] it was 67.9 µM. The TGI in assay [7] is greater than 100 µM.
Turning to `c1ccc(CN2CCC3(CC2)SSC2(CCN(Cc4ccccc4)CC2)S3)cc1`, the TGI in [1] was greater than 100 µM; in assay [2], 33.3 µM; in [10] it was greater than 100 µM; in [3], greater than 100 µM; in [8], greater than 100 µM; in assay [5] it was greater than 100 µM. In addition, the TGI in [9], in [6] and in assay [7] was greater than 100 µM throughout.
Turning to `O=C1NC2(CCCCCC2)C2CCCCCCC12O` (stereo unspecified), the TGI in assay [1], in [2], in assay [3], in assay [8], in assay [5] and in assay [9] was greater than 100 µM each time. Also, the TGI in assay [6] and in [7] was greater than 100 µM each time.
Regarding `COc1cccc2c1ccc1nc3cccc(C(=O)N[C@H](C)CN(C)C)c3nc12`, the GI50 in [1] is 0.0887 µM; in assay [2], 0.0646 µM; in [10] it was 0.0735 µM; in assay [3] it was 0.084 µM; in [8], 0.0929 µM; in assay [5] it was 0.102 µM. Further, the GI50 in assay [9] was 0.175 µM; in [6] it was 0.205 µM; in assay [7], 0.039 µM. The TGI in [1] was 2.44 µM; in [2], 0.282 µM; in assay [10], 3.71 µM; in assay [3], 0.787 µM; in assay [8], 0.382 µM; in assay [5], 0.511 µM. Also, the TGI is 0.643 µM in assay [9], 1.16 µM in assay [6] and 0.694 µM in assay [7].
Consider `COc1ccc2c(c1)[n+]([O-])c(-c1ccc(OC)c(OC)c1)c(N)[n+]2[O-]`, for which the TGI was greater than 100 µM in [1]; 34.5 µM in assay [2]; greater than 100 µM in assay [3]; greater than 100 µM in assay [4]; 57 µM in assay [8]; greater than 100 µM in assay [5]. For the same molecule, the TGI in [9], in [6] and in assay [7] was greater than 100 µM in each case.
`c1ccc(C(c2ccccc2)c2cccnc2)cc1`: the TGI in assay [1], in assay [2], in [3], in assay [4], in assay [8] and in assay [5] was greater than 100 µM each time. Moreover, the TGI in assay [9], in assay [6] and in [7] was greater than 100 µM in each case.
On to `CC(=O)NNc1nc(C)c(C(=O)/C=C/c2ccccc2Cl)s1`, for which the TGI in assay [1], in assay [2], in assay [3], in [4], in assay [8] and in assay [5] was greater than 100 µM in each case. Also, the TGI in [9], in assay [6] and in [7] was greater than 100 µM throughout.
As for `O=C(O/C(=C(/N=Nc1ccccc1)c1ccccc1)c1ccccc1)c1ccccc1`, the TGI in assay [1], in assay [4], in assay [8], in [9], in assay [6] and in assay [7] was greater than 100 µM each time.
For `O=c1[nH]nc2ccccc2c1Cc1ccccc1`, the TGI in assay [1], in assay [2], in assay [3], in [4], in assay [8] and in assay [5] was greater than 100 µM each time. In addition, the TGI in assay [9], in [6] and in [7] was greater than 100 µM each time.
With `N.N.N.N.N.[Cl-].[Co+3].c1ccc(-c2nn[n-]n2)cc1`, the GI50 in assay [1], in [2], in [3], in assay [4], in assay [8] and in [5] was greater than 100 µM each time. Besides, the GI50 in [9], in assay [6] and in [7] was greater than 100 µM each time. Also, the TGI in assay [1], in assay [2], in assay [3], in assay [4], in assay [8] and in [5] was greater than 100 µM throughout. Further, the TGI in assay [9], in assay [6] and in assay [7] was greater than 100 µM throughout.
In the case of `O=C(O)c1cc2ccc3ccccc3c2oc1=O`, the TGI in assay [1], in assay [2], in assay [3], in [4], in assay [8] and in assay [5] was greater than 100 µM in each case. The TGI in assay [9], in assay [6] and in assay [7] was greater than 100 µM each time.
As for `O=C(CC(=O)C1=CNc2ccccc2S1)C(=O)Nc1ccc(Cl)cc1`, the TGI in assay [1], in [2], in assay [3], in assay [4], in [8] and in assay [5] was greater than 50 µM each time. The TGI in assay [9], in assay [6] and in [7] was greater than 50 µM throughout.
On to `Clc1ccc(N=Nc2nc3ccccc3nc2N=Nc2ccc(Cl)cc2Cl)c(Cl)c1`, for which the TGI in assay [1], in [2], in [3], in assay [4], in assay [8] and in assay [5] was greater than 100 µM in each case. In addition, the values for the TGI in assay [9], in assay [6] and in assay [7] were greater than 100 µM, 93.4 µM and greater than 100 µM, respectively.
With `O=C1Nc2nc3ccccc3n2N=C2CCCC12` (stereo unspecified), the TGI in assay [1], in assay [2], in [3], in assay [8], in assay [5] and in [9] was greater than 100 µM in each case. Besides, the TGI in assay [6] and in assay [7] was greater than 100 µM in each case.
For `COCC(O)Cn1ccnc1[N+](=O)[O-]` (stereo unspecified), the TGI in [1], in assay [2], in assay [3], in assay [4], in [8] and in assay [5] was greater than 100 µM each time. In addition, the TGI in assay [9] and in [7] was greater than 100 µM each time.
Take `CCOC1=C2C(=O)OC(=O)C2C2CCCCC2=C1` (stereo unspecified): the TGI in [1], in assay [2], in assay [3], in [8], in [5] and in assay [9] was greater than 100 µM each time. The TGI in [6] and in assay [7] was greater than 100 µM in each case.
For `CCn1cc(C(=O)N/N=C/c2ccccc2)c(=O)c2cc(F)c(N3CCNC(C)C3)c(F)c21` (stereo unspecified), the GI50 in [1] was 1.68 µM; in assay [10], 1.88 µM; in assay [5] it was 1.82 µM; in assay [7], 1.76 µM. Further, the TGI in assay [1] was found to be 3.25 µM; in [10], 3.3 µM; in assay [5], 3.3 µM; in [7], 3.31 µM.
With `C1COCCN1.C1COCCN1.NC1CCCCC1N.[Cl-].[Pt+2]` (stereo unspecified), the GI50 in assay [1], in assay [2], in assay [3], in assay [4], in [8] and in assay [5] was greater than 100 µM in each case. Moreover, the GI50 in [9], in assay [6] and in assay [7] was greater than 100 µM in each case. Also, the TGI in assay [1], in assay [2], in [3], in [4], in assay [8] and in [5] was greater than 100 µM in each case. For the same molecule, the TGI in assay [9], in assay [6] and in assay [7] was greater than 100 µM in each case.
As for `Cc1oc2c(C)c3oc(=O)cc(C)c3cc2c1CN1C(=O)C2OCCOCCOCCOCCOCCO[C@H]2C1=O` (stereo partly specified), the TGI in [1], in assay [2], in assay [3], in [4], in assay [8] and in assay [5] was greater than 100 µM each time. In addition, the TGI in [6] and in assay [7] was greater than 100 µM throughout.
In the case of `Cc1cc2c(C)nn(Cc3ccccc3)c2c(C(N)=O)c1C`, the TGI in [1], in [2], in assay [3], in [8], in assay [5] and in assay [9] was greater than 100 µM in each case. Besides, the results for the TGI in assay [6] and in [7] were 58.8 µM and greater than 100 µM, respectively.
Turning to `OCC1C(/C=C/c2ccoc2)ON2CCCC12` (stereo unspecified), the TGI in [1], in assay [2], in assay [3], in assay [4], in assay [8] and in assay [9] was greater than 100 µM each time. Also, the TGI in [6] and in [7] was greater than 100 µM each time.

Source of the values: PubChem BioAssay (NCI).
